pEC50: −log10 of the molar value.
Molecular target: T1, human apelin receptor (APJ, AGTRL-one, APLNR) (Homo sapiens, UniProt P35414)
T1 construct: host or cells: Chinese hamster ovary cells, stably integrated receptor
T1 sequence (P35414 1-380): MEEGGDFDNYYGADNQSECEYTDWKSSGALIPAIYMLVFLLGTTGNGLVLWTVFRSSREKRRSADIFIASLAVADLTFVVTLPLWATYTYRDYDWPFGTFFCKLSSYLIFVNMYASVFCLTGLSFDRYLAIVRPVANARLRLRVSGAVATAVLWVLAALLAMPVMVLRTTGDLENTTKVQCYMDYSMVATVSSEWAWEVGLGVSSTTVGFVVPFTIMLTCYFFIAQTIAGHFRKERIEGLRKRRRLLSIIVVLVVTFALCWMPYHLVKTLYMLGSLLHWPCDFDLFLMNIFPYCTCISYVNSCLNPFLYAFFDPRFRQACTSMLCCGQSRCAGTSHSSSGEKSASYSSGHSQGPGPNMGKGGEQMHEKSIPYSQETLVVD
Assay: cell-based cAMP TR-FRET assay of apelin receptor activation
Conditions: CHO cells expressing human APJ, forskolin-stimulated cAMP, 0.5 h incubation, 50% of control (apelin-13, 1 nM) response; read-out: Potency Category (EC50)
Method in brief: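 CHO cells stably expressing human APJ were stimulated to raise cAMP, then incubated 0.5 h with compound (0.0-100 μM, ≤1% DMSO). Lysed cAMP measured by competitive TR-FRET immunoassay; efficacy as % of 1 nM apelin-13 response, potency from four-point logistic fit over ≥10 concentrations.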

Row | SMILES | pEC50
1 | COc1cc2nc(NC(=O)C(Oc3ccc(C#N)cc3)c3ccc(Cl)cc3)sc2cc1OC (centres unmarked) | 6.70 to 7.00
2 | COc1cc2nc(NC(=O)C(Oc3ccc(C#N)cc3)c3ccc(C(=O)NCCN4CCCCC4)cc3)oc2cc1OC (centres unmarked) | < 6.30
3 | COc1cc2nc(NC(=O)C(Oc3ccc(C#N)cc3)c3ccc(C(=O)NCCO)cc3)sc2cc1OC (centres unmarked) | 7.00 to 7.30
4 | CCS(=O)(=O)c1ccc(C(Oc2ccc(Br)cc2)C(=O)Nc2nc3cc(OC)c(OC)cc3s2)cc1 (centres unmarked) | 6.30 to 6.70
5 | CCS(=O)(=O)c1ccc(C(CC2CC2)C(=O)Nc2nc3cc(OC)c(OC)cc3s2)cc1 (centres unmarked) | < 6.30
6 | COc1ccc(S(=O)(=O)c2ccccc2C(Oc2ccc(C#N)cc2)C(=O)Nc2nc3cc(OC)c(OC)cc3s2)cc1 (centres unmarked) | 6.70 to 7.00
7 | CCCCc1ccc(OC(C(=O)Nc2nc3cc(OC)c(OC)cc3s2)c2ccc(S(=O)(=O)CC)cc2)cc1 (centres unmarked) | < 6.30
8 | COc1cc2nc(NC(=O)Cc3ccc(C(=O)O)cc3)sc2cc1OC | < 6.30
9 | COc1cc2nc(NC(=O)Cc3cccc(S(=O)(=O)c4ccc(F)cc4)c3)sc2cc1OC | < 6.30
10 | CCS(=O)(=O)c1ccc(C(NCC(C)C)C(=O)Nc2nc3cc(OC)c(OC)cc3s2)cc1 (centres unmarked) | < 6.30
11 | CCS(=O)(=O)c1ccc(C(Oc2ccc(C#N)cc2)C(=O)Nc2nc3cnc(OC)cc3s2)cc1 (centres unmarked) | < 6.30
12 | COc1cc2nc(NC(=O)Cc3cccc(C(=O)O)c3)sc2cc1OC | < 6.30
13 | CCS(=O)(=O)c1ccc(C(Oc2ccc(C#N)cc2)C(=O)Nc2nc3ccc4c(c3s2)OCO4)cc1 (centres unmarked) | < 6.30
14 | CCS(=O)(=O)c1ccc(C(Oc2ccccc2C)C(=O)Nc2nc3cc(OC)c(OC)cc3s2)cc1 (centres unmarked) | < 6.30
15 | CCS(=O)(=O)c1ccc(C(OCC2CCCCC2)C(=O)Nc2nc3cc(OC)c(OC)cc3s2)cc1 (centres unmarked) | < 6.30
16 | COc1cc2nc(NC(=O)C(Oc3ccc(C#N)cc3)c3ccc([N+](=O)[O-])cc3)sc2cc1OC (centres unmarked) | > 7.30
17 | CCS(=O)(=O)c1ccc(C(Oc2ccc(C#N)cc2)C(=O)Nc2nc3cc(OC)ccc3s2)cc1 (centres unmarked) | < 6.30
18 | CCS(=O)(=O)c1ccc(C(Oc2ccc(C#N)cc2Cl)C(=O)Nc2nc3cc(OC)c(OC)cc3s2)cc1 (centres unmarked) | > 7.30
19 | CCS(=O)(=O)c1ccc(C(Oc2ccc(C#N)cc2C)C(=O)Nc2nc3cc(OC)c(OC)cc3s2)cc1 (centres unmarked) | > 7.30
20 | COc1cc2nc(NC(=O)C(Oc3ccc(C#N)cc3)c3ccc(C)cc3)sc2cc1OC (centres unmarked) | 7.00 to 7.30
21 | CCS(=O)(=O)c1ccc(C(Oc2cccc(C)c2)C(=O)Nc2nc3cc(OC)c(OC)cc3s2)cc1 (centres unmarked) | < 6.30

Row | SMILES | pEC50
22 | CCCOc1ccc(OC(C(=O)Nc2nc3cc(OC)c(OC)cc3s2)c2ccc(S(=O)(=O)CC)cc2)cc1 (centres unmarked) | 6.30 to 6.70
23 | COc1cc2nc(NC(=O)C(Oc3ccc(C#N)cc3)c3ccc(S(=O)(=O)C(C)C)cc3)sc2cc1OC (centres unmarked) | > 7.30
24 | CCS(=O)(=O)c1ccc(C(Oc2ccc(C#N)cc2)C(=O)Nc2nc3ccc(OC)cc3s2)cc1 (centres unmarked) | < 6.30
25 | COC(=O)c1ccc(CC(=O)Nc2nc3cc(OC)c(OC)cc3s2)cc1 | < 6.30
26 | COc1cc2nc(NC(=O)C(Oc3ccc(C#N)cc3)c3ccc(C(=O)N(C)C)cc3)sc2cc1OC (centres unmarked) | > 7.30
27 | CCS(=O)(=O)c1ccc(C(OCCOC)C(=O)Nc2nc3cc(OC)c(OC)cc3s2)cc1 (centres unmarked) | < 6.30
28 | COc1cc2nc(NC(=O)C(Oc3ccc(C#N)cc3)c3cccc(S(=O)(=O)C(C)C)c3)sc2cc1OC (centres unmarked) | 6.30 to 6.70
29 | COc1cc2nc(NC(=O)C(Oc3ccc(C(=O)NCCN4CCCC4)cc3)c3ccc(C#N)cc3)sc2cc1OC (centres unmarked) | 6.30 to 6.70
30 | CCS(=O)(=O)c1ccc(C(Oc2ccc(OC)cc2)C(=O)Nc2nc3c(OC)ccc(OC)c3s2)cc1 (centres unmarked) | < 6.30
31 | COc1cc2nc(NC(=O)C(Oc3ccc(C(=O)NCCN4CCOCC4)cc3)c3ccc(C#N)cc3)sc2cc1OC (centres unmarked) | 6.30 to 6.70
32 | CCS(=O)(=O)c1ccc(C(Oc2cccc(C#N)c2)C(=O)Nc2nc3cc(OC)c(OC)cc3s2)cc1 (centres unmarked) | < 6.30
33 | COc1cc2nc(NC(=O)C(Oc3ccc(OCCN4CCOCC4)cc3)c3ccc(C#N)cc3)sc2cc1OC (centres unmarked) | 7.00 to 7.30
34 | CCS(=O)(=O)c1ccc(C(Oc2ccc(OC(F)(F)F)cc2)C(=O)Nc2nc3cc(OC)c(OC)cc3s2)cc1 (centres unmarked) | 6.30 to 6.70
35 | COc1cc2nc(NC(=O)C(Oc3ccc(C#N)cc3)c3ccc(S(=O)(=O)N(C)C)cc3)sc2cc1OC (centres unmarked) | > 7.30
36 | COc1cc2nc(NC(=O)C(Oc3ccc(C#N)cc3)c3ccc(OCCN(C)C)cc3)sc2cc1OC (centres unmarked) | > 7.30
37 | CCS(=O)(=O)c1ccc(C(Oc2ccc(C#N)cc2)C(=O)Nc2nc3cc(OC)c(OC)cc3o2)cc1 (centres unmarked) | > 7.30
38 | CCS(=O)(=O)c1ccc(C(OCc2ccc(C#N)cc2)C(=O)Nc2nc3cc(OC)c(OC)cc3s2)cc1 (centres unmarked) | < 6.30
39 | COc1cc2nc(NC(=O)C(Oc3ccc(C#N)cc3)c3cccc(S(=O)(=O)c4ccc(F)cc4)c3)sc2cc1OC (centres unmarked) | 6.30 to 6.70
40 | CCC(C(=O)Nc1nc2cc(OC)c(OC)cc2s1)c1ccc(S(=O)(=O)CC)cc1 (centres unmarked) | < 6.30
41 | CCS(=O)(=O)c1ccc(C(Oc2ccc(C#N)cc2)C(=O)Nc2nc3c4c(ccc3s2)OCCO4)cc1 (centres unmarked) | < 6.30
42 | CCS(=O)(=O)c1ccc(C(C(=O)Nc2nc3cc(OC)c(OC)cc3s2)C2CCCC2)cc1 (centres unmarked) | < 6.30

Row | SMILES | pEC50
43 | CCS(=O)(=O)c1ccc(C(Oc2ccc(C#N)cc2)C(=O)Nc2nc3cc(OCCF)c(OC)cc3s2)cc1 (centres unmarked) | > 7.30
44 | CCS(=O)(=O)c1ccc(CC(=O)Nc2nc3cc(N(C)C)ccc3s2)cc1 | < 6.30
45 | CCS(=O)(=O)c1ccc(C(Cc2ccccc2)C(=O)Nc2nc3cc(OC)c(OC)cc3s2)cc1 (centres unmarked) | < 6.30
46 | COc1ccc(OC(C(=O)Nc2nc3cc(OC)c(OC)cc3s2)c2cccc(S(=O)(=O)c3ccc(F)cc3)c2)cc1 (centres unmarked) | < 6.30
47 | COc1cc2nc(NC(=O)C(Oc3ccc(C(=O)NCCN4CCCCC4)cc3)c3ccc(C#N)cc3)sc2cc1OC (centres unmarked) | > 7.30
48 | CCS(=O)(=O)c1ccc(C(Oc2ccc(I)cc2)C(=O)Nc2nc3cc(OC)c(OC)cc3s2)cc1 (centres unmarked) | 6.30 to 6.70
49 | COCCOc1ccc(C(Oc2ccc(C#N)cc2)C(=O)Nc2nc3cc(OC)c(OC)cc3o2)cc1 (centres unmarked) | > 7.30
50 | COc1cc2nc(NC(=O)C(Oc3ccc(C(=O)N4CCNCC4)cc3)c3ccc(C#N)cc3)sc2cc1OC (centres unmarked) | > 7.30
51 | CCS(=O)(=O)c1ccc(C(Oc2ccc(C#N)cc2)C(=O)Nc2nc3ccc(N4CCN(C)CC4)cc3s2)cc1 (centres unmarked) | < 6.30
52 | CCS(=O)(=O)c1ccc(CC(=O)Nc2nc3cc(OC)c(OC)cc3s2)cc1 | 6.30 to 6.70
53 | CCCCS(=O)(=O)c1ccc(C(Oc2ccc(C#N)cc2)C(=O)Nc2nc3cc(OC)c(OC)cc3s2)cc1 (centres unmarked) | > 7.30
54 | CCS(=O)(=O)c1ccc(C(Oc2ccc(C#N)cc2)C(=O)Nc2nc3cc(OCc4ccccc4)c(OC)cc3s2)cc1 (centres unmarked) | < 6.30
55 | COc1cc2nc(NC(=O)C(Oc3ccc(C#N)cc3)c3ccc(S(=O)(=O)c4ccc(C(F)(F)F)cc4)cc3)sc2cc1OC (centres unmarked) | < 6.30
56 | COc1cc2nc(NC(=O)C(Oc3ccc(C#N)cc3)c3ccc(S(=O)(=O)c4ccc(F)cc4)cc3)sc2cc1OC (centres unmarked) | 6.70 to 7.00
57 | CCS(=O)(=O)c1ccc(C(Oc2ccc(C#N)cc2)C(=O)Nc2nc3ccc(OCCN4CCN(C)CC4)cc3s2)cc1 (centres unmarked) | < 6.30
58 | CCS(=O)(=O)c1ccc(C(Oc2ccc(C#N)cc2)C(=O)Nc2nc3cc(OC)c(OC)cc3s2)cc1 (centres unmarked) | > 7.30
59 | CCS(=O)(=O)c1ccc(C(Oc2ccc(C#N)cc2)C(=O)Nc2nc3cc(OCCN(C)C)c(OC)cc3s2)cc1 (centres unmarked) | < 6.30
60 | CCS(=O)(=O)c1ccc(CC(=O)Nc2nc3cc4c(cc3s2)OCO4)cc1 | < 6.30
61 | CCS(=O)(=O)c1ccc(C(Oc2ccc(C)cc2)C(=O)Nc2nc3cc(OC)c(OC)cc3s2)cc1 (centres unmarked) | 6.30 to 6.70
62 | C#Cc1ccc(OC(C(=O)Nc2nc3cc(OC)c(OC)cc3s2)c2ccc(S(=O)(=O)CC)cc2)cc1 (centres unmarked) | 6.70 to 7.00

— US12071414B2, “Apelin receptor agonists and methods of use thereof” (Sanford Burnham Prebys Medical Discovery Institute, priority 2015, dated 2024)
